Data published in ChEMBL document CHEMBL2163293, “Rational approaches to improving selectivity in drug design” (J Med Chem, 2012).

Biological target: Protease (Human immunodeficiency virus 1, UniProt Q9YQ12)
Assay: Inhibition of HIV1 protease

Sequence of Protease (Q9YQ12 whole entry): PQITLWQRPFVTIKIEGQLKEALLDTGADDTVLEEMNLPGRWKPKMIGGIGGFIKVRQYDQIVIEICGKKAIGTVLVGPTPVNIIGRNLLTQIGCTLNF

CC(=O)N[C@H](C(=O)N[C@H](C(=O)N[C@@H](CC(C)C)[C@@H](O)CC(=O)N[C@@H](C)C(=O)N[C@@H](CC(C)C)[C@@H](O)CC(=O)O)C(C)C)C(C)C [ACETYLPEPSTATIN]
Ki: 0.02 nM
